The text below walks through data of patent US9073855B2, “BCL-2 selective apoptosis-inducing agents for the treatment of cancer and immune diseases” (AbbVie Inc., priority 2008, dated 2015).

The target in one assay is GST-Bcl-2 (Homo sapiens, UniProt P10415). In words: TR-FRET binding assay, GST-Bcl-2 with F-Bak peptide probe. To be noted: TR-FRET Binding Affinity, GST-Bcl-2, F-Bak peptide probe. Put shortly:
(§1)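 Ki was derived with Wang's equation for competitive binding of two ligands. The read-out was time-resolved fluorescence after a 3 h room-temperature incubation, using a Tb-labelled antibody donor and the F-Bak peptide acceptor (excitation 340/35 nm). Test compounds entered as DMSO serial dilutions starting at 50 μM, which was the 2× concentration.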
A general note: Time-resolved FRET reads energy transfer from a long-lived donor to a nearby acceptor.

Another assay has as its target GST-Bcl-XL (Homo sapiens, UniProt Q07817). Put plainly: TR-FRET binding assay, GST-Bcl-XL with F-Bak peptide probe. Particulars: TR-FRET Binding Affinity, GST-Bcl-XL, F-Bak peptide probe. Put shortly:
as §1

Some results are limits rather than exact numbers.

Sequence of GST-Bcl-XL (Q07817 whole entry): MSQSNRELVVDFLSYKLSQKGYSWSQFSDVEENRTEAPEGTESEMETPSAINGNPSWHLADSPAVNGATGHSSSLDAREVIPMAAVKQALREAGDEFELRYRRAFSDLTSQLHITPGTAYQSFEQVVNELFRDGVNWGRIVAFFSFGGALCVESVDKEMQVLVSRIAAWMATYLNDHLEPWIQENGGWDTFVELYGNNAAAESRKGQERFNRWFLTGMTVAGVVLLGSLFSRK
Sequence of GST-Bcl-2 (P10415 whole entry): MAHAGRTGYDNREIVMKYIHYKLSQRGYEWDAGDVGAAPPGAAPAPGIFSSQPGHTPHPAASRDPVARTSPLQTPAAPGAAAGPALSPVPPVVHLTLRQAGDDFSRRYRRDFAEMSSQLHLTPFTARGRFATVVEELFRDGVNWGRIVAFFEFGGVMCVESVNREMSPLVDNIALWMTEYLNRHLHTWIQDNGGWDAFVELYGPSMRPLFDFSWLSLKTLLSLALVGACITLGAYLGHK

One may read the Ki as a measure of affinity in units of concentration, obtained from inhibition or displacement. The low end stands for a stronger hold on the target, the high end for a looser hold on the target. In the case of `CN(C)CCOc1cccc(-c2ccc(Cl)cc2)c1CN1CCN(c2ccc(C(=O)NS(=O)(=O)c3ccc(NCC4CCOCC4)c(S(=O)(=O)C(F)(F)F)c3)c(Oc3ccccc3)c2)CC1` [Example 124, 4-[4-({4′-chloro-3-[2-(dimethylamino)ethoxy]-1,1′-biphenyl-2-yl}methyl)piperazin-1-yl]-2-phenoxy-N-({4-[(tetrahydro-2H-pyran-4-ylmethyl)amino]-3-[(trifluoromethyl)sulfonyl]phenyl}sulfonyl)benzamide], the inhibitory constant (Ki) at GST-Bcl-2 came out at 0.335 nM; at GST-Bcl-XL it was 73.7 nM.
`O=C(NS(=O)(=O)c1ccc(NCC2CCOCC2)c([N+](=O)[O-])c1)c1ccc(N2CCN(Cc3cc(OCCN4CCOCC4)ccc3-c3ccc(Cl)cc3)CC2)cc1Oc1ccc2[nH]ccc2c1` [Example 127, 4-(4-{[4′-chloro-4-(2-morpholin-4-ylethoxy)-1,1′-biphenyl-2-yl]methyl}piperazin-1-yl)-2-(1H-indol-5-yloxy)-N-({3-nitro-4-[(tetrahydro-2H-pyran-4-ylmethyl)amino]phenyl}sulfonyl)benzamide]: the Ki on GST-Bcl-2 is 0.459 nM; at GST-Bcl-XL it was over 660 nM.
The like results for `CN(C)CCNc1ccc(S(=O)(=O)NC(=O)c2ccc(N3CCN(Cc4ccccc4-c4ccc(Cl)cc4)CC3)cc2Oc2ccccc2)cc1[N+](=O)[O-]` [Example 153, 4-{4-[(4′-chloro-1,1′-biphenyl-2-yl)methyl]piperazin-1-yl}-N-[(4-{[2-(dimethylamino)ethyl]amino}-3-nitrophenyl)sulfonyl]-2-phenoxybenzamide] were, in that order, 0.265 nM and 93 nM.
Regarding `CN(C)CCCCNc1ccc(S(=O)(=O)NC(=O)c2ccc(N3CCN(Cc4ccccc4-c4ccc(Cl)cc4)CC3)cc2Oc2ccccc2)cc1[N+](=O)[O-]` [Example 156, 4-{4-[(4′-chloro-1,1′-biphenyl-2-yl)methyl]piperazin-1-yl}-N-[(4-{[4-(dimethylamino)butyl]amino}-3-nitrophenyl)sulfonyl]-2-phenoxybenzamide], the Ki stood at 0.116 nM on GST-Bcl-2 and 6.16 nM at GST-Bcl-XL.
The matching figures for `O=C(NS(=O)(=O)c1ccc(NC2CCN(S(=O)(=O)c3ccccc3)CC2)c([N+](=O)[O-])c1)c1ccc(N2CCN(Cc3ccccc3-c3ccc(Cl)cc3)CC2)cc1Oc1ccccc1` [Example 157, 4-{4-[(4′-chloro-1,1′-biphenyl-2-yl)methyl]piperazin-1-yl}-N-[(3-nitro-4-{[1-(phenylsulfonyl)piperidin-4-yl]amino}phenyl)sulfonyl]-2-phenoxybenzamide]: 4.45 nM and over 660 nM.
Turning to `O=C(NS(=O)(=O)c1ccc(NC2CCN(S(=O)(=O)c3cccc4cccnc34)CC2)c([N+](=O)[O-])c1)c1ccc(N2CCN(Cc3ccccc3-c3ccc(Cl)cc3)CC2)cc1Oc1ccccc1` [Example 158, 4-{4-[(4′-chloro-1,1′-biphenyl-2-yl)methyl]piperazin-1-yl}-N-[(3-nitro-4-{[1-(quinolin-8-ylsulfonyl)piperidin-4-yl]amino}phenyl)sulfonyl]-2-phenoxybenzamide], the Ki on GST-Bcl-2 is 64.8 nM; on GST-Bcl-XL, over 660 nM.
`CN(C)CC[C@H](Nc1ccc(S(=O)(=O)NC(=O)c2ccc(N3CCN(Cc4ccccc4-c4ccc(Cl)cc4)CC3)cc2Oc2ccccc2)cc1[N+](=O)[O-])c1cccs1` [Example 161, 4-{4-[(4′-chloro-1,1′-biphenyl-2-yl)methyl]piperazin-1-yl}-N-[(4-{[(1S)-3-(dimethylamino)-1-thien-2-ylpropyl]amino}-3-nitrophenyl)sulfonyl]-2-phenoxybenzamide]: the Ki at GST-Bcl-2 was 1.71 nM; at GST-Bcl-XL, over 660 nM.
On to `O=C(NS(=O)(=O)c1ccc(NCc2cccs2)c([N+](=O)[O-])c1)c1ccc(N2CCN(Cc3ccccc3-c3ccc(Cl)cc3)CC2)cc1Oc1ccccc1` [Example 162, 4-{4-[(4′-chloro-1,1′-biphenyl-2-yl)methyl]piperazin-1-yl}-N-({3-nitro-4-[(thien-2-ylmethyl)amino]phenyl}sulfonyl)-2-phenoxybenzamide], for which the Ki on GST-Bcl-2 came out at 1.35 nM; at GST-Bcl-XL, 167 nM.
The like results for `O=C(NS(=O)(=O)c1ccc(NCC2CCOCC2)c(S(=O)(=O)C(F)(F)F)c1)c1ccc(N2CCN(Cc3ccccc3-c3ccc(Cl)cc3)CC2)cc1Oc1ccccc1` [Example 163, 4-{4-[(4′-chloro-1,1′-biphenyl-2-yl)methyl]piperazin-1-yl}-2-phenoxy-N-({4-[(tetrahydro-2H-pyran-4-ylmethyl)amino]-3-[(trifluoromethyl)sulfonyl]phenyl}sulfonyl)benzamide] were, in that order, 5.62 nM and over 660 nM.
The like results for `O=C(NS(=O)(=O)c1ccc(NCCn2ccnn2)c([N+](=O)[O-])c1)c1ccc(N2CCN(Cc3ccccc3-c3ccc(Cl)cc3)CC2)cc1Oc1ccccc1` [Example 164, 4-{4-[(4′-chloro-1,1′-biphenyl-2-yl)methyl]piperazin-1-yl}-N-[(3-nitro-4-{[2-(1H-1,2,3-triazol-1-yl)ethyl]amino}phenyl)sulfonyl]-2-phenoxybenzamide] were, in that order, 0.963 nM and 138 nM.
The like results for `O=C(NS(=O)(=O)c1ccc(NCCn2nccn2)c([N+](=O)[O-])c1)c1ccc(N2CCN(Cc3ccccc3-c3ccc(Cl)cc3)CC2)cc1Oc1ccccc1` [Example 165, 4-{4-[(4′-chloro-1,1′-biphenyl-2-yl)methyl]piperazin-1-yl}-N-[(3-nitro-4-{[2-(2H-1,2,3-triazol-2-yl)ethyl]amino}phenyl)sulfonyl]-2-phenoxybenzamide] were, in that order, 0.823 nM and 36.6 nM.
In the case of `O=C(NS(=O)(=O)c1ccc(NCCc2ccncc2)c([N+](=O)[O-])c1)c1ccc(N2CCN(Cc3ccccc3-c3ccc(Cl)cc3)CC2)cc1Oc1ccccc1` [Example 169, 4-{4-[(4′-chloro-1,1′-biphenyl-2-yl)methyl]piperazin-1-yl}-N-({3-nitro-4-[(2-pyridin-4-ylethyl)amino]phenyl}sulfonyl)-2-phenoxybenzamide], the figures for the Ki at GST-Bcl-2 and on GST-Bcl-XL were 0.97 nM and 88.6 nM, respectively.
The like results for `O=C(NS(=O)(=O)c1ccc(NCC2CCOCC2)c([N+](=O)[O-])c1)c1ccc(N2CCN(Cc3cc(N4CCOCC4)ccc3-c3ccc(Cl)cc3)CC2)cc1Oc1cccc2[nH]ccc12` [Example 198, 4-{4-[(4′-chloro-4-morpholin-4-yl-1,1′-biphenyl-2-yl)methyl]piperazin-1-yl}-2-(1H-indol-4-yloxy)-N-({3-nitro-4-[(tetrahydro-2H-pyran-4-ylmethyl)amino]phenyl}sulfonyl)benzamide] were, in that order, 3.97 nM and over 660 nM.
The like results for `CC1(C)CCC(CN2CCN(c3ccc(C(=O)NS(=O)(=O)c4ccc(NN5CCN(CCO)CC5)c([N+](=O)[O-])c4)c(Oc4ccc5[nH]ccc5c4)c3)CC2)=C(c2ccc(Cl)cc2)C1` [Example 233, 4-(4-{[2-(4-chlorophenyl)-4,4-dimethylcyclohex-1-en-1-yl]methyl}piperazin-1-yl)-N-[(4-{[4-(2-hydroxyethyl)piperazin-1-yl]amino}-3-nitrophenyl)sulfonyl]-2-(1H-indol-5-yloxy)benzamide] were, in that order, 0.243 nM and over 660 nM.
The like results for `CN1CC[C@H](Nc2ccc(S(=O)(=O)NC(=O)c3ccc(N4CCN(CC5=C(c6ccc(Cl)cc6)CC(C)(C)CC5)CC4)cc3Oc3ccc4[nH]ccc4c3)cc2[N+](=O)[O-])C1` [Example 234, 4-(4-{[2-(4-chlorophenyl)-4,4-dimethylcyclohex-1-en-1-yl]methyl}piperazin-1-yl)-2-(1H-indol-5-yloxy)-N-[(4-{[(3S)-1-methylpyrrolidin-3-yl]amino}-3-nitrophenyl)sulfonyl]benzamide] were, in that order, 0.369 nM and 24.5 nM.
On to `CC1(C)CCC(CN2CCN(c3ccc(C(=O)NS(=O)(=O)c4ccc(NC5CCN(CCCF)CC5)c([N+](=O)[O-])c4)c(Oc4ccc5[nH]ccc5c4)c3)CC2)=C(c2ccc(Cl)cc2)C1` [Example 235, 4-(4-{[2-(4-chlorophenyl)-4,4-dimethylcyclohex-1-en-1-yl]methyl}piperazin-1-yl)-N-[(4-{[1-(3-fluoropropyl)piperidin-4-yl]amino}-3-nitrophenyl)sulfonyl]-2-(1H-indol-5-yloxy)benzamide], for which the inhibitory constant (Ki) stood at 0.252 nM at GST-Bcl-2 and 58.2 nM at GST-Bcl-XL.
In the case of `CC1(C)CCC(CN2CCN(c3ccc(C(=O)NS(=O)(=O)c4ccc(NCC5CCOCC5)c([N+](=O)[O-])c4)c(Oc4ccc5[nH]ccc5c4)c3)CC2CO)=C(c2ccc(Cl)cc2)C1` (centres unmarked) [Example 236, 4-[4-{[2-(4-chlorophenyl)-4,4-dimethylcyclohex-1-en-1-yl]methyl}-3-(hydroxymethyl)piperazin-1-yl]-2-(1H-indol-5-yloxy)-N-({3-nitro-4-[(tetrahydro-2H-pyran-4-ylmethyl)amino]phenyl}sulfonyl)benzamide], the Ki is 0.369 nM on GST-Bcl-2 and over 660 nM on GST-Bcl-XL.
The matching figures for `CC1(C)CCC(CN2CCN(c3ccc(C(=O)NS(=O)(=O)c4ccc(NCC5(N)CCOCC5)c([N+](=O)[O-])c4)c(Oc4ccc5[nH]ccc5c4)c3)CC2CO)=C(c2ccc(Cl)cc2)C1` (centres unmarked) [Example 237, N-[(4-{[(4-aminotetrahydro-2H-pyran-4-yl)methyl]amino}-3-nitrophenyl)sulfonyl]-4-[4-{[2-(4-chlorophenyl)-4,4-dimethylcyclohex-1-en-1-yl]methyl}-3-(hydroxymethyl)piperazin-1-yl]-2-(1H-indol-5-yloxy)benzamide]: 0.401 nM and 268 nM.
The matching figures for `CC1(C)CCC(CN2CCN(c3ccc(C(=O)NS(=O)(=O)c4ccc(NC5(CO)CCOCC5)c([N+](=O)[O-])c4)c(Oc4cccc5[nH]ccc45)c3)CC2)=C(c2ccc(Cl)cc2)C1` [Example 241, 4-(4-{[2-(4-chlorophenyl)-4,4-dimethylcyclohex-1-en-1-yl]methyl}piperazin-1-yl)-N-[(4-{[4-(hydroxymethyl)tetrahydro-2H-pyran-4-yl]amino}-3-nitrophenyl)sulfonyl]-2-(1H-indol-4-yloxy)benzamide]: 6.09 nM and over 660 nM.
